Source: patent US20230271950A1, “ANTIBACTERIAL PICOLINAMIDE COMPOUNDS” (University of Notre Dame Du Lac, priority 2020, published 2023)
In brackets after ≈: the same amount, converted by molar mass. Like-named read-outs stand apart in the source and are kept apart here.

Tests used:
[1] = tested on: C. difficile; experiment: MIC by broth microdilution against C. difficile strains; type: cell-based, Clostridioides difficile; details: for MIC: Clostridioides difficile
[2] = tested on: C. difficile ATCC43255; experiment: Macromolecular synthesis assay (radioactive precursor incorporation); type: cell-based, Clostridioides difficile; details: 0.5×MIC, N-acetyl-d-[6-^3H]glucosamine incorporation, 120 min
Description: FIG. 2. Mechanism of action of compound 1. (A) Macromolecular biosynthesis assays: Compound 1 was incubated with C. difficile ATCC43255 at 0.5×MIC. […] The incubation time was 60 min for DNA, 120 min for peptidoglycan synthesis and RNA, and 180 min for protein synthesis. (B-G) Imaging of C. difficile […] vegetative cells (logarithmic growth) by scanning electron microscopy.
The mechanism of action of 1 was investigated using macromolecular synthesis assays. These assays measure the incorporation of radioactive precursors ([2,8-^3H]-adenine, [5,6-^3H]-uridine, 1-[3,4,5-^3H(N)]-leucine, and N-acetyl-d-[6-^3H]glucosamine) respectively into DNA, RNA, protein, and peptidoglycan. […] This analysis visualizes the cell wall as the outermost layer of the cell envelope of Gram-positive bacteria such as C. difficile.
Macromolecular synthesis assay. The macromolecular synthesis assay was performed by established methods. […] The radiolabeled precursors were purchased from Perkin Elmer (Waltham, Mass., USA).

[3] = tested on: S. aureus ATCC29213; experiment: MIC against MSSA; type: cell-based, Staphylococcus aureus; details: Staphylococcus aureus; MSSA ATCC 29213; Table 10, unit inferred; read-out: Activity (MIC) against S. aureus
[4] = tested on: E. faecium NCTC7171; experiment: MIC against E. faecium; type: cell-based, Enterococcus faecium; details: Enterococcus faecium, NCTC7171; E. faecium NCTC 7171; Table 10, unit inferred; read-out: Activity (MIC) against E. faecium
[5] = tested on: HeLa cells; experiment: XTT cytotoxicity assay with HeLa cells; type: cell-based; details: Homo sapiens, Table 6
Description: XTT assay. Cytotoxicity assays were performed in triplicate against HeLa cells (ATCC CCL-2). The IC50 values were calculated by nonlinear regression with GraphPad Prism 5 (San Diego, Calif.).
XTT assay. XTT assays were performed with HeLa cells (ATCC CCL-2) in triplicate, as previously described (Lancet 2008, 371, 1486). IC50 values were determined by nonlinear regression using GraphPad Prism 5 (San Diego, Calif.).

[6] = Pharmacokinetics study in mice (plasma and feces levels); type: in vivo; details: for Conc. feces/MIC: dose 20 mg · kg^−1; for concentration at 8 h: female, CD-1, mouse, single oral gavage, dose 20 mg · kg^−1, feces collected after 8 h, read-out: Drug concentration in fecal samples (mg kg^−1 feces)
Description: Pharmacokinetics (PK) study. Mice (n=2 per time point) were given a single 100 μL solution of 5 mg/mL of compound 1 (equivalent to 20 mg/kg). Terminal blood was collected in heparinized syringes by cardiac puncture at 30 min, 1 h, 2 h, 4 h, and 8 h. The two mice at the 8-h time point were place in metabolism cages for collection of feces. Compound 1 was dissolved in 5% DMSO/95% water with 96 mg/mL of sodium bicarbonate. Blood was centrifuged at 1,000 g for 20 min at 4° C. and plasma was separated and stored at −80° C. until analysis. A 45-μL aliquot of plasma was mixed with 5 μL of H2O:ACN (1:1) and was quenched with 100 μL of acetonitrile containing 20 μM of internal standard (compound 10). The sample was centrifuged at 21,000 g for 15 min at 4° C. to precipitate the proteins, and the resulting supernatant was analyzed by UPLC-TQD detector using multiple-reaction monitoring (MRM). Calibration curves for compound 1 were prepared from 0 to 102.4 μM using a control mouse plasma (50 μL). Peak area ratios relative to internal standard and linear regression was used from which the concentrations in plasma samples from the PK study were determined.
An average of 250 mg of feces were collected at 8 h from two mice, and subsequently homogenized with 6 times the feces volume (1,500 μL of H2O:ACN 1:1) using a Bullet Blender (Next Advance, Inc., Troy, N.Y.). The homogenate was centrifuged at 21,000 g for 5 min. The fecal supernatant (72 μL) was mixed with 8 μL of a solution of H2O:ACN (1:1) and 40 μL of 50 μM of the internal standard in ACN with 0.5% formic acid. A calibration curve was prepared from 0 μM to 102.4 μM in control mouse feces. Plasma and feces were analyzed on a Waters TQD tandem quadrupole detector (Waters Corporation, Milford, Mass.) using a YMC-Triart C18 100 mm×2.0 mm column (3μ, YMC Co. Ltd, Kyoto, Japan). The chromatographic conditions consisted of elution with 30% H2O/70% ACN containing 0.10% formic acid for 5 min at a flow rate 0.5 mL/min. Mass Spectrometry acquisition was performed in the positive electrospray ionization mode with MRM. The capillary, cone, extractor and RF lens voltages were set at 2.8 kV, 40 V, 1 V and 0.1 V, respectively. The desolvation and cone gas (nitrogen) flow rates were 650 L/h and 50 L/h, respectively. The source temperature was set at 150° C. The desolvation temperature was 350° C. The MRM transitions used were 459.4→254.0 for compound 1, and 294.8→133.5 for the internal standard.
Animals. Female C57BL/6 mice weighing 18-20 g and 6-8 weeks of age were used for the efficacy study (Jackson, Bar Harbor, Me.). Female CD-1 mice (24-31 g and 7-8 weeks of age) were used for the PK study. They were housed in groups of five mice in sterile polycarbonate shoeboxes with bedding consisting of ¼-inch corncob (The Andersons Ind., Maumee, Ohio) and Alpha-Dri (Shepherd Specialty Papers, Inc., Richland, Mich.). Mice were maintained on a 12-h light/dark cycle at 72° F. and were given Teklad 2918 irradiated extruded rodent diet and water ad libitum. All procedures were performed in accordance with and approved by the University of Notre Dame Institutional Animal Care and Use Committee.
Pharmacokinetics (PK) Studies. Compounds 4, 87, 107, and 108 were dissolved in 10% DMSO, 25% propylene glycol, 15% Tween 80 and 50% water at concentrations of 5 mg/mL or 10 mg/mL. Compound 116 was dissolved in 5% DMSO, 95% water with 96 mg/mL of sodium bicarbonate. Mice (n=2 per time point) were given a single 100 μL oral gavage of the test compound (equivalent to either 10 mg/kg and/or 20 mg/kg), and terminal blood was collected in heparinized syringes by cardiac puncture at 30 min, 1 h, 2 h, 4 h, and 8 h. An average of 250 mg of feces were collected after 8 h from two mice housed in metabolism cages in each group for further analysis. Blood was centrifuged at 1000 g for 2 min at 4° C. to obtain plasma. Plasma and fecal samples were stored at −80° C. until analysis. […]

[7] = C. difficile, Table 8, read-out: MIC

MIC ([1]; ATCC43255, C. difficile ATCC 43255, read-out: MIC against C. difficile) [µg/mL]	Compound	MIC ([1]; ATCC43255, C. difficile ATCC43255, FIG. 2 legend, read-out: MIC of positive controls) [µg/mL]	inhibition of cell-wall peptidoglycan biosynthesis [2] [%]	MIC [1, 7] [µg/mL]	Selectivity ([1]; Table 8)	MIC [3] [µg/mL]	MIC [4] [µg/mL]	IC50 [5] [µg/mL]	Conc. feces/MIC [6]	concentration at 8 h [6] [ng/g]
	Cc1onc(-c2ccccc2)c1C(=O)N[C@@H]1C(=O)N2[C@@H]1SC(C)(C)[C@@H]2C(=O)O [oxacillin, reference compound]	8	51±1							
0.5	O=C([O-])c1ccc2oc(NC(=O)c3cc(Oc4ccc(F)c(F)c4)ccn3)nc2c1.[Na+] [Compound 116, Sodium 2-(4-(3,4-difluorophenoxy)picolinamido)benzo[d]oxazole-5-carboxylate]			0.5	128	128	128	> 128	7.4	3700
	O=C(Nc1ncco1)c1cc(Oc2cccc(F)c2)ccn1 [Compound 107, 4-(3-Fluorophenoxy)-N-(oxazol-2-yl)picolinamide]			1 (≈ 3.34 µM)	>256	64 (≈ 214 µM)	64 (≈ 214 µM)	88 ± 2.3 (≈ 294 µM)	2.4	2400
